US8536199B2, “Oral combination of vitamins” (priority 2008, dated 2013)

Test system: pregnant women in first trimester (nausea and vomiting, morning sickness)
Experiment: Treatment of morning sickness in pregnant women with chewable tablets (volunteer reports)
Type: in vivo, human
Conditions: volunteer 8, recalled from their first pregnancy
Excerpt: A group of pregnant women were provided with the tablets, as prepared in Example 3, and were advised to take one to two tablets per day.

Cc1ncc(CO)c(CO)c1O [vitamin B6, pyridoxine]
Reported effect of vitamin B6 injections on nausea of pregnancy: did not feel helped
